# Results as given in US20070213394A1 (priority 2004, published 2007).
# Like-named read-outs stand apart in the source and are kept apart here.
# Tests used:
# [1] = target: T1, human kappa opioid receptor (Homo sapiens, UniProt P41145); assay: biochemical; assay type: binding
# T1 construct: expressed in transfected cells; host or cells: Chinese hamster ovary cells (CHO-hKOR), membranes
# [2] = target: T1, human kappa opioid receptor; assay: biochemical; settings: for Emax: 1 h, read-out: Efficacy
# T1 sequence (P41145 whole entry): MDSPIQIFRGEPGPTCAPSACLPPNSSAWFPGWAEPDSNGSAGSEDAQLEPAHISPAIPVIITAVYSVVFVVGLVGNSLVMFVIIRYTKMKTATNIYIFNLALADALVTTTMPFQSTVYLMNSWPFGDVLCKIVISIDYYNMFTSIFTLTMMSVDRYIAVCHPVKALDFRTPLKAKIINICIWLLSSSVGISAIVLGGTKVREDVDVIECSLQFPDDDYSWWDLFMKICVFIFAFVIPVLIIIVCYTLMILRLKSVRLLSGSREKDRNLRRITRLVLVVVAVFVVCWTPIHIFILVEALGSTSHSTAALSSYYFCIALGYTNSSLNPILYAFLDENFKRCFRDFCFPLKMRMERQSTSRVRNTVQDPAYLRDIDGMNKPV
SMILES,Ki [1] [µM],also measured
CC(=O)OC1CC(C(=O)NCC(=O)OCc2ccccc2)C2(C)CCC3C(=O)OC(c4ccoc4)CC3(C)C2C1=O (stereo not drawn) [Compound 100],0.47 ± 0.092,EC50 [2]: 0.227 ± 0.015 µM; Emax [2]: 105%
"CCNC1CC(C(=O)OC)C2(C)CCC3C(=O)OC(c4ccoc4)CC3(C)C2C1=O (stereo not drawn) [Compound 209a, 2-(N-ethyl)-salvinorin]",0.065 ± 0.024,EC50 [2]: 0.0728 ± 0.004 µM
"COC(=O)[C@@H]1C[C@H](OC(N)=O)C(=O)C2[C@@]1(C)CC[C@H]1C(=O)O[C@H](c3ccoc3)C[C@]21C (stereo partly drawn) [Compound 9, 2-(O-formamide)-salvinorin B]",0.0032 ± 0.0002,EC50 [2]: 0.0062 ± 0.0014 µM; Emax [2]: 99%
"COC(=O)[C@@H]1C[C@H](OC(=O)CN(C)C)C(=O)C2[C@@]1(C)CC[C@H]1C(=O)O[C@H](c3ccoc3)C[C@]21C (stereo partly drawn) [Compound 12, 2-(2′-(N,N-dimethylamino)acetate) salvinorin B]",> 10,
COC(=O)[C@@H]1C[C@H](OC(=O)CNC(C)=O)C(=O)C2[C@@]1(C)CC[C@H]1C(=O)O[C@H](c3ccoc3)C[C@]21C (stereo partly drawn) [Compound 26],> 10,
"CN[C@@H]1C[C@@H](C(=O)OC)[C@]2(C)CC[C@H]3C(=O)O[C@H](c4ccoc4)C[C@]3(C)C2C1=O (stereo partly drawn) [Compound 11, 2-(N-methylamino)-salvinorin]",> 10,
"CCC(=O)N(C)C1CC(C(=O)OC)C2(C)CCC3C(=O)OC(c4ccoc4)CC3(C)C2C1=O (stereo not drawn) [Compound 215a, 2-(N-methylpropionamide)-salvinorin]",0.0016 ± 0.0001,
COC(=O)[C@@H]1C[C@H](OC(=O)[C@H](C)N)C(=O)C2[C@@]1(C)CC[C@H]1C(=O)O[C@H](c3ccoc3)C[C@]21C (stereo partly drawn) [Compound 25],> 10,
"CNCC1CC(OC(C)=O)C(=O)C2C1(C)CCC1C(=O)OC(c3ccoc3)CC12C (stereo not drawn) [C8-epi-compound 224, 8-epi-4-(N-methylamino)methyl salvinorin A]",,Ki ([1]; read-out: Ki): > 10 µM
CC(=O)OC1CC(C(=O)OCc2ccccc2)C2(C)CCC3C(=O)OC(c4ccoc4)CC3(C)C2C1=O (stereo not drawn) [Compound 37],> 10,
CC(=O)OC1CC(C(=O)N2CCCC2C(=O)OCc2ccccc2)C2(C)CCC3C(=O)OC(c4ccoc4)CC3(C)C2C1=O (stereo not drawn) [Compound 104],> 10,
"CC(=O)O[C@H]1C[C@@H](CO)[C@]2(C)CCC3C(=O)O[C@H](c4ccoc4)C[C@]3(C)[C@H]2C1=O (stereo partly drawn) [Compound 222, O-demethyl-18-deoxysalvinorin A]",> 10,
"CCC(=O)OC1CC(C(=O)OC)C2(C)CCC3C(=O)OC(c4ccoc4)CC3(C)C2C1=O (stereo not drawn) [Compound 203b, 2-epi-salvinorin B propionate]",0.641 ± 0.122,
CCCCCCCCOC(=O)C1CC(OC(C)=O)C(=O)C2C1(C)CCC1C(=O)OC(c3ccoc3)CC12C (stereo not drawn) [Compound 42],> 10,
"CCCC(=O)OC1CC(C(=O)OC)C2(C)CCC3C(=O)OC(c4ccoc4)CC3(C)C2C1=O (stereo not drawn) [Compound 204b, 2-epi-salvinorin B butyrate]",0.665 ± 0.1,
CCCCCOC(=O)C1CC(OC(C)=O)C(=O)C2C1(C)CCC1C(=O)OC(c3ccoc3)CC12C (stereo not drawn) [Compound 40],> 10,
C=CCOC(=O)C1CC(OC(C)=O)C(=O)C2C1(C)CCC1C(=O)OC(c3ccoc3)CC12C (stereo not drawn) [Compound 56],> 10,
C#CCCOC(=O)C1CC(OC(C)=O)C(=O)C2C1(C)CCC1C(=O)OC(c3ccoc3)CC12C (stereo not drawn) [Compound 53],> 10,
CCCCOC(=O)C1CC(OC(C)=O)C(=O)C2C1(C)CCC1C(=O)OC(c3ccoc3)CC12C (stereo not drawn) [Compound 35],> 10,
CC(=O)OC1CC(C(=O)NC(Cc2cnc[nH]2)C(=O)OCc2ccccc2)C2(C)CCC3C(=O)OC(c4ccoc4)CC3(C)C2C1=O (stereo not drawn) [Compound 105],> 10,
"CCNCC1CC(OC(C)=O)C(=O)C2C1(C)CCC1C(=O)OC(c3ccoc3)CC12C (stereo not drawn) [C8-epi-compound 225, 8-epi-4-(N-ethylamino)methyl salvinorin A]",,Ki ([1]; read-out: Ki): > 10 µM
CC(=O)OC1CC(C(=O)NC(C)C(=O)OCc2ccccc2)C2(C)CCC3C(=O)OC(c4ccoc4)CC3(C)C2C1=O (stereo not drawn) [Compound 99],> 10,
